Measured values as given in ChEMBL document CHEMBL2094269, “WEHI/Eskitis Trypanosoma b. brucei screening data”.
Several values for one entry are separate records, joined by “and”; a condition that tells them apart may be missing. Equal entries are not always repeated.

Experiments:
[1] = test system: Trypanosoma brucei brucei; assay: microbe, parasite or virus in culture; assay type: functional, organism-based, STIB 795
Description: DNDI: Inhibition of Human African Trypanosomiasis (HAT), STIB 795, in vitro

[2] = DNDI: Cytotoxicity against human MRC-5 lung fibroblast cells.; settings: IC50

Structure (SMILES) | IC50 ([1]; Trypanosoma brucei, STIB 795) | IC50 [2] | IC50 [1]
O=C1/C(=C/c2ccncc2)CCC/C1=C\c1ccncc1 | 0.03 µM | 1.94 µM | –
CC(C)(C)C1C/C(=C\c2cccnc2)C(=O)/C(=C/c2cccnc2)C1 (centres undefined) | 0.098 µM | > 4.17 µM | –
CN(C)CCn1c(=N)n(CC(O)c2ccc(Cl)c(Cl)c2)c2ccccc21 (centres undefined) | 1.07 µM | > 4.17 µM | –
Oc1ccc(Cn2cnc3ccccc32)c2cccnc12 | 1.55 µM | > 4.17 µM | –
O=C(N/N=C/c1cc2c3c(c1O)CCCN3CCC2)c1ccncc1 | 0.288 µM | > 0.42 µM | –
Cc1ccccc1-n1sc2ccccc2c1=O | 1.99 µM | > 20.8 µM | –
O=C(N/N=C/c1cc(I)ccc1O)c1ccccc1O | 44.4 µM | > 4.17 µM | –
NCC(O)(c1ccc(Cl)cc1)c1ccc(Cl)cc1 | 5.33 µM | > 20.8 µM | 5.39 µM
Cc1ccc(O)c(NC(=O)c2nc(N)n(C)n2)c1 | 0.196 µM | 1.84 µM | –
CC(C)NCC(O)CNc1cccc2c1C(=O)c1ccccc1C2=O (centres undefined) | 3.42 µM | > 4.17 µM | –
Cc1ccc(O)c(NN=C2C(=O)CC(C)(C)CC2=O)c1 | 5.09 µM | > 4.17 µM | –
Cc1ccc(/C(=C\CCNCCN)c2ccccc2)cc1 | 0.269 µM | > 20.8 µM | –
CCCn1c(=O)c2c(nc3n2CCN3Cc2ccco2)n(C)c1=O | 4.91 µM | > 41.7 µM | –
Cc1ccc(C(=O)C(CO)n2ccnc2)cc1 (centres undefined) | 2.05 µM | > 41.7 µM | –
CC1(C)CC(=O)C/C(=N/NC(=O)c2cc3ccccc3cc2O)C1 | < 0.1 µM | > 41.7 µM | –
COc1ccccc1C/C(N)=N/OC(=O)c1ccc(OC)c(OC)c1 | 0.558 µM | > 4.17 µM | –
Cc1conc1NC(c1cccs1)c1ccc2cccnc2c1O (centres undefined) | 5.74 µM | > 20.8 µM | –
Cn1ccc(/C=C2/CCC/C(=C\c3ccn(C)n3)C2=O)n1 | 5.61 µM | > 20.8 µM | –
COc1ccc(C(=O)C(C)N2C=CC=C/C2=C2\C=CC=CN2)cc1 (centres undefined) | 4.25 µM | > 41.7 µM | –
COc1ccc(C(C)(C)C#Cc2c(C)nc(N)nc2N)cc1 | ≤ 3.48 µM | > 4.17 µM | –
N=c1n(Cc2ccccc2)c2ccccc2n1CC(O)COc1ccccc1 (centres undefined) | 7.55 µM | > 41.7 µM | –
CCC(/C=C1\Sc2ccccc2N1C)=C\c1sc2ccccc2[n+]1C | 0.403 µM | 2.28 µM | –
Cc1[nH]c2ccc(OC(F)(F)F)cc2c1CCNCC1CC=CCC1 (centres undefined) | 2.89 µM | 7.85 µM | –
COC(=O)c1[nH]cc2c3cccnc3c3ncccc3c12 | 0.064 µM | 0.59 µM | –

Structure (SMILES) | IC50 ([1]; Trypanosoma brucei, STIB 795) | IC50 [2] | IC50 [1]
Cc1ccccc1Cn1c(=N)n(CC(O)c2ccco2)c2ccccc21 (centres undefined) | 5.25 µM | > 20.8 µM | –
CC1CS/C(=N/c2ccc(Br)cc2)N1 (centres undefined) | 6.65 µM | > 41.7 µM | –
CC(C)n1c(=N)n(CCOc2ccc(Br)cc2)c2ccccc21 | 2.02 µM | > 4.17 µM | –
COc1ccccc1C(=O)c1sc(Nc2ccc3c(c2)OCCO3)nc1N | ≤ 1.08 µM | > 1.04 µM | –
Clc1ccc(C[n+]2cc(-c3ccccc3)n3c2CCC3)c(Cl)c1 | 5.23 µM | > 41.7 µM | –
CCOC(=O)/C=C\n1nnc2ccccc21 | 0.503 µM | > 41.7 µM | –
O=C(Nc1ccc(Cl)cc1)O/N=C(/c1ccc(Cl)cc1)N1CCOCC1 | 4.31 µM | > 41.7 µM | –
Clc1cc2c(c3ncccc13)OCN(CC1CCCO1)C2 (centres undefined) | 6.81 µM | 6.72 µM | –
Cc1ccc(-c2cc(C(F)F)nc(SC3CC(=O)C4OCC3O4)n2)cc1 (centres undefined) | – | > 41.7 µM | > 10.4 µM and 5.2 µM
C=CCN(CC=C)Cc1c(O)ccc2c(=O)c(-c3ccccc3Cl)coc12 | 5.19 µM | > 41.7 µM | 5.3 µM
CC(C)=C1C2CCC1C1C(=O)N(NC(=O)C(C)Oc3ccc(C)c(C)c3)C(=O)C21 (centres undefined) | 5.39 µM | > 41.7 µM | –
CCOc1cc(-n2ncc(Cl)c(Cl)c2=O)nc(SC)n1 | 1.51 µM | > 4.17 µM | –
c1ccc(Cn2s/c(=N\c3ccccc3)nc2-c2ccccc2)cc1 | 1.38 µM | > 20.8 µM | –
CC1(C)CCC[C@]2(C)C=C(C3OCCO3)C(=O)C[C@@H]12 | 5.21 µM | > 41.7 µM | –
Clc1cccc(CNC2=Nc3ccccc3NC23CCNCC3)c1 | 1.2 µM | 9.14 µM | –
N/C(=N\OC(=O)C12CC3CC(CC(C3)C1)C2)c1ccccc1Cl | 0.372 µM | > 41.7 µM | –
COc1ccc(N2C(=O)CN(Cc3ccccc3)C2=S)cc1Cl | 5.49 µM | > 41.7 µM | –
CC[n+]1c(/C=C/c2ccc(N(C)C)cc2)ccn1-c1ccccc1 | 0.536 µM | > 20.8 µM | –
CCN1C=CC(=Cc2ccc3cc(C)ccc3[n+]2C)C=C1 | 0.538 µM | > 20.8 µM | –
CCC1(C)CC(CCNCc2ccccc2O)(c2ccc(F)cc2)CCO1 (centres undefined) | 4.73 µM | > 41.7 µM | –
N=c1c2c(n(Cc3ccc(Cl)cc3Cl)c3c1CCC3)CCCC2 | 0.842 µM | > 41.7 µM | –
CC(C)N1C/C(=C/c2ccccn2)C(=O)/C(=C/c2ccccn2)C1 | 0.236 µM | 5.78 µM | –
CC(C)(C)c1ccc(OCCCCCCN2CCNCC2)cc1 | 0.734 µM | > 20.8 µM | –
Nc1nc(NN2CCCCC2)nc(-c2cc(Cl)ccc2O)n1 | 4.15 µM | > 20.8 µM | –

Structure (SMILES) | IC50 ([1]; Trypanosoma brucei, STIB 795) | IC50 [2] | IC50 [1]
CCN(CC)c1ccc(/C=N\NC(=O)Cn2nnc3ccccc32)c(O)c1 | 0.551 µM | > 41.7 µM | –
COc1nccnc1N/N=C/c1cc(Cl)cc(Cl)c1O | 5.19 µM | > 20.8 µM | –
N/C(=N\OC(=O)c1cccs1)c1ccccc1Cl | 0.766 µM | > 20.8 µM | –
O=C1c2ccccc2C(=O)c2c1ccc1nonc21 | 0.394 µM | > 20.8 µM | –
CCc1ccc(NS(=O)(=O)c2cc(-c3cc(C)n[nH]3)ccc2C)cc1 | 1.23 µM | > 4.17 µM | –
N=C(NOC(=O)N1CCOCC1)c1ccc(Br)cc1 | 0.748 µM | > 20.8 µM | –
N/C(Cc1cccc2ccccc12)=N\OC(=O)N1CCOCC1 | 0.604 µM | > 20.8 µM | –
CCN(CC)c1ccc(/C=N/NC(=O)c2cccs2)c(O)c1 | 12.6 µM | > 41.7 µM | –
COc1ccc(C(NC(=O)CC(C)C)c2ccc3cccnc3c2O)cc1OC (centres undefined) | 0.6 µM | 0.685 µM | –
CCc1cc(OCCCCCN2CCNCC2)ccc1Cl | 0.807 µM | > 20.8 µM | –
CN1CCN(Cc2cn(-c3ccc(Cl)cc3)c3ccc(F)cc23)CC1 | 5.2 µM | > 41.7 µM | –
CC1(C)CC(N2COc3c(cc(Cl)c4cccnc34)C2)CC(C)(C)N1 | 5.53 µM | > 20.8 µM | –
CC1(C)CC(=O)C(C2=C(Cl)C(=O)c3ccccc3C2=O)=C(O)C1 | 0.642 µM | > 41.7 µM | 0.59 µM
Cc1cc(C)c(OCCCCCCN2CCNCC2)c(Br)c1 | 1.02 µM | > 20.8 µM | –
N=C(NOC(=O)CC1CCCCC1)c1cccnc1 | 5.36 µM | > 41.7 µM | –
CCOC(=O)c1cnc2c(OC)cccc2c1NCCCO | 8.61 µM | > 41.7 µM | –
S=C(N/N=C(/c1ccccc1)c1ccccn1)Nc1ccccc1 | 4.84 µM | > 4.17 µM | –
N#C/C(=C\c1cccn1-c1ccc(S(N)(=O)=O)cc1)c1nc2ccccc2[nH]1 | 4.99 µM | > 41.7 µM | –
N=c1n(CCO)c2ccccc2n1CCOc1ccc(Cl)cc1Cl | 2.63 µM | 8.93 µM | –
O=C(NCCc1csc(-c2ccc(F)cc2)n1)c1ccc(Br)o1 | 4.66 µM | > 41.7 µM | –
O=C(/C=C/c1ccccc1)ONC(=O)c1ccc(Cl)cc1 | 4.45 µM | > 20.8 µM | –
CC1CCC(C(C)C)C(OCC(O)CN2C(C)CCCC2C)C1 (centres undefined) | 3.51 µM | > 20.8 µM | –
O=C1C=C/C(=N\Nc2ccc3c(c2)OCCO3)c2cccnc21 | 1.43 µM | > 20.8 µM | –
c1coc(CNc2c3ccccc3nc3ccccc23)c1 | 2.73 µM | > 4.17 µM | –

Structure (SMILES) | IC50 ([1]; Trypanosoma brucei, STIB 795) | IC50 [2] | IC50 [1]
CCOc1c(Cl)cc(CNCCc2c[nH]c3ccccc23)cc1OC | 5.09 µM | > 41.7 µM | –
CCN1CCO/C1=C\C=C\C1=[N+](CC)CCO1 | 0.166 µM | > 41.7 µM | –
Cc1cc(C)nc(Nc2nc(N)c3ccccc3n2)n1 | 3.79 µM | 6.09 µM | –
C=CCNCCCCOc1ccc(Br)cc1Cl | 4.95 µM | > 41.7 µM | –
COc1ccc(N2C(=O)CN(Cc3sccc3C)C2=S)cc1Cl | 4.94 µM | > 41.7 µM | –
Cc1ccc(Nc2cc(C)nc3c(C)c(C)cc(N)c23)c(C)c1 | 5.12 µM | > 41.7 µM | –
CS(=O)(=O)/C=C(\c1ccccc1)c1ccncc1 | 0.641 µM | > 20.8 µM | –
O=C(O)c1n[nH]c2c1CCCCCC2 | ≤ 2.64 µM | > 4.17 µM | –
Cc1ccc2oc(SCC(=O)Nc3nc4ccccc4s3)nc2n1 | 2.16 µM | > 20.8 µM | –
CCCCOc1ccc(CSC(=N)N)cc1 | 5.48 µM | > 20.8 µM | –
Oc1cccc2ccc(CNC3CC3)nc12 | 5.36 µM | > 20.8 µM | –
COc1ccc(-c2cc3ccccc3n2CC(O)CNCCO)cc1 (centres undefined) | 5.17 µM | > 20.8 µM | –
CC1(C)N=C(N)N=C(N)N1OCc1cccc(C2CCCCC2)c1 | 4.68 µM | > 41.7 µM | –
CSC(=S)N/N=C(\C)c1ccncn1 | 5.02 µM | > 4.17 µM | –
CCCN1C(=O)C(O)(CC(=O)c2cccnc2)c2cc(Br)ccc21 (centres undefined) | 0.617 µM | > 41.7 µM | –
CCN(CC)CCn1c(=N)n(CC(=O)c2ccc(C)cc2)c2ccccc21 | 4.72 µM | > 41.7 µM | 4.97 µM
COC(=O)c1nc(-c2ccccc2)nc(-c2ccccc2)c1C(=O)OC | 4.78 µM | > 4.17 µM | –
CCCOc1ccc(C(=O)Nc2ccc(Cc3ccncc3)cc2)cc1 | 1.23 µM | 4.61 µM | –
CN(C)CCCN(C)Cc1ccccc1Sc1ccc2ccccc2c1 | 2.57 µM | > 41.7 µM | –
CN(CCO)CC(O)Cn1c2ccc(Cl)cc2c2cc(Cl)ccc21 (centres undefined) | 4.95 µM | > 20.8 µM | –
Cc1cc(C)c2nc(C)cc(Nc3ccc(O)cc3)c2c1 | 2.95 µM | > 20.8 µM | –
CNC(C)(C)Cc1c2c(cc3c1CCC3)CCC2 | 4.62 µM | > 41.7 µM | –
Cc1ccc(C(=O)ON=C(/C=C/c2ccccc2)/C=C/c2ccccc2)cc1 | 1.65 µM | > 41.7 µM | –
